Test results as given in PubChem BioAssay AID328 (DTP/NCI, 2004).
Where “and” joins values, the source holds several entries; their conditions need not be identical. Identical values can stand only once. Toxic doses and inconclusive results are not listed. Rule for the calls: active = survival T/C of 150% or more; inactive = T/C below 125% in these data.

Test system: BDF1 mice, P388 leukemia ip, median survival T/C
Experiment: NCI In Vivo Anticancer Drug Screen. Data for tumor model P388 Leukemia (intraperitoneal) in B6D2F1 (BDF1) mice
Details: endpoint: median survival time, higher = longer survival
In short: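 Mice carrying the transplantable tumour receive compound or vehicle. Survival is followed in each arm, and the treated measure is divided by the vehicle measure.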

[1] = dose: 50.0 mg/kg/injection, schedule: Q01DX001 (ip), vehicle: saline sonified
[2] = dose: 100.0 mg/kg/injection, schedule: Q04DX003 (ip), vehicle: Klucel (hydroxypropylcellulose) (HPC)
[3] = dose: 200.0 mg/kg/injection, schedule: Q04DX003 (ip), vehicle: Klucel (hydroxypropylcellulose) (HPC)
[4] = dose: 50.0 mg/kg/injection, schedule: Q01DX009 (ip), vehicle: Klucel (hydroxypropylcellulose) (HPC)
[5] = dose: 100.0 mg/kg/injection, schedule: Q01DX009 (ip), vehicle: Klucel (hydroxypropylcellulose) (HPC)
[6] = dose: 200.0 mg/kg/injection, schedule: Q01DX009 (ip), vehicle: Klucel (hydroxypropylcellulose) (HPC)
[7] = dose: 100.0 mg/kg/injection, schedule: Q01DX009 (ip), vehicle: saline
[8] = dose: 200.0 mg/kg/injection, schedule: Q01DX009 (ip), vehicle: saline
[9] = dose: 400.0 mg/kg/injection, schedule: Q01DX009 (ip), vehicle: saline
[10] = dose: 50.0 mg/kg/injection, schedule: Q01DX009 (ip), vehicle: saline with Tween-80
[11] = dose: 100.0 mg/kg/injection, schedule: Q01DX009 (ip), vehicle: saline with Tween-80
[12] = dose: 200.0 mg/kg/injection, schedule: Q01DX009 (ip), vehicle: saline with Tween-80
[13] = dose: 400.0 mg/kg/injection, schedule: Q01DX009 (ip), vehicle: saline with Tween-80
[14] = dose: 100.0 mg/kg/injection, schedule: Q04DX003 (ip), vehicle: saline with Tween-80
[15] = dose: 200.0 mg/kg/injection, schedule: Q04DX003 (ip), vehicle: saline with Tween-80
[16] = dose: 400.0 mg/kg/injection, schedule: Q04DX003 (ip), vehicle: saline with Tween-80
[17] = dose: 100.0 mg/kg/injection, schedule: Q01DX001 (ip), vehicle: saline with Tween-80
[18] = dose: 400.0 mg/kg/injection, schedule: Q01DX001 (ip), vehicle: saline with Tween-80
[19] = dose: 25.0 mg/kg/injection, schedule: Q01DX009 (ip), vehicle: Klucel (hydroxypropylcellulose) (HPC)
[20] = dose: 400.0 mg/kg/injection, schedule: Q04DX003 (ip), vehicle: Klucel (hydroxypropylcellulose) (HPC)

Measured: T/C

CC(C)(C)[O][Pb]([c]1ccccc1)([c]1ccccc1)[c]1ccccc1
inactive: dose: 0.39 mg/kg/injection, schedule: Q01DX009 (ip), vehicle: saline 100 % of control | dose: 0.85 mg/kg/injection, schedule: Q04DX003 (ip), vehicle: saline 105 % of control | dose: 1.02 mg/kg/injection, schedule: Q01DX009 (ip), vehicle: saline 104 % of control and 115 % of control | dose: 1.7 mg/kg/injection, schedule: Q04DX003 (ip), vehicle: saline 110 % of control | dose: 2.34 mg/kg/injection, schedule: Q01DX009 (ip), vehicle: saline 113 % of control and 120 % of control | dose: 3.4 mg/kg/injection, schedule: Q01DX009 (ip), vehicle: saline 90 % of control | dose: 3.4 mg/kg/injection, schedule: Q04DX003 (ip), vehicle: saline 90 % of control | dose: 5.0 mg/kg/injection, schedule: Q04DX003 (ip), vehicle: saline 104 % of control | dose: 5.75 mg/kg/injection, schedule: Q01DX001 (ip), vehicle: Klucel (hydroxypropylcellulose) (HPC) 88 % of control | dose: 7.7 mg/kg/injection, schedule: Q04DX003 (ip), vehicle: saline 86 % of control

CCCCN(CCO)C(C#CC(C)(C)O)C(C)C (stereo not drawn)
inactive: [1] 110 % of control | dose: 100.0 mg/kg/injection, schedule: Q01DX001 (ip), vehicle: saline sonified 110 % of control | dose: 200.0 mg/kg/injection, schedule: Q01DX001 (ip), vehicle: saline sonified 105 % of control

O=[N+]([O-])c1ccc(/C=C/c2nccs2)o1
inactive: [2] 100 % of control | [3] 103 % of control

CC12C(=O)C(C)(C(c3ccccc3)=C1c1ccccc1)C1(c3ccccc3)C(c3ccccc3)C21c1ccccc1 (stereo not drawn)
inactive: [4] 100 % of control | [5] 100 % of control | [6] 104 % of control

CCOC(N)=O
inactive: [7] 120 % of control | [8] 90 % of control | [9] 100 % of control | dose: 500.0 mg/kg/injection, schedule: Q01DX010 (ip), vehicle: saline 113 % of control
active: dose: 125.0 mg/kg/injection, schedule: Q01DX010 (ip), vehicle: saline 154 % of control | dose: 250.0 mg/kg/injection, schedule: Q01DX010 (ip), vehicle: saline 154 % of control

CC1CCCN2C(=O)CN(N3CCOCC3)CC(=O)N12 (stereo not drawn)
inactive: dose: 100.0 mg/kg/injection, schedule: Q04DX002 (ip), vehicle: saline with Tween-80 121 % of control

COc1ccc(/C(=C\S(C)=O)c2cccs2)cc1 (stereo not drawn)
inactive: [10] 105 % of control | [11] 107 % of control | [12] 100 % of control

Cc1cc(C)c2nc3c(c(C(O)C4CCCCN4)c2c1)CC/C3=C\c1ccc(Cl)cc1 (stereo not drawn)
inactive: [10] 114 % of control | [11] 100 % of control | [12] 116 % of control

COc1cc([N+](=O)[O-])ccc1NC(=O)NCc1ccccc1
inactive: [10] 95 % of control | [11] 98 % of control | [12] 98 % of control | [13] 104 % of control

CCN(CC)C(=O)Cn1ccc(NC(C)=O)nc1=O
inactive: [7] 104 % of control | dose: 100.0 mg/kg/injection, schedule: Q04DX003 (ip), vehicle: saline 95 % of control | [8] 86 % of control | dose: 200.0 mg/kg/injection, schedule: Q04DX003 (ip), vehicle: saline 100 % of control | [9] 100 % of control | dose: 400.0 mg/kg/injection, schedule: Q04DX003 (ip), vehicle: saline 100 % of control

N#CC1OC(COC(=O)c2ccccc2)C(O)C1O (stereo not drawn)
inactive: [10] 101 % of control | [11] 94 % of control | [12] 88 % of control

Cc1n(CC(C)C)c2c([n+]1CC(=O)c1ccc([N+](=O)[O-])cc1)C(=O)c1ccccc1C2=O
inactive: dose: 1.25 mg/kg/injection, schedule: Q01DX010 (ip), vehicle: saline 118 % of control | dose: 2.5 mg/kg/injection, schedule: Q01DX010 (ip), vehicle: saline 122 % of control | dose: 5.0 mg/kg/injection, schedule: Q01DX010 (ip), vehicle: saline 104 % of control

CCCCCCCCCCCCCCCCSCCCCCCCCCCCSCCCCCCCCCCCCCCCC
inactive: dose: 25.0 mg/kg/injection, schedule: Q01DX001 (ip), vehicle: saline sonified 90 % of control | [1] 90 % of control

OCCNCc1ccccc1
inactive: dose: 100.0 mg/kg/injection, schedule: Q04DX003 (ip), vehicle: water 100 % of control | dose: 400.0 mg/kg/injection, schedule: Q04DX003 (ip), vehicle: water 113 % of control

CCC12CCCN3C(=O)CC(C(=O)CC1)C32 (stereo not drawn)
inactive: dose: 25.0 mg/kg/injection, schedule: Q04DX003 (ip), vehicle: saline sonified 95 % of control | dose: 50.0 mg/kg/injection, schedule: Q04DX003 (ip), vehicle: saline sonified 109 % of control | dose: 100.0 mg/kg/injection, schedule: Q04DX003 (ip), vehicle: saline sonified 109 % of control

S=C(S)Nc1cccc2ccccc12
inactive: [11] 100 % of control | [14] 90 % of control | [12] 100 % of control | [15] 109 % of control | [13] 105 % of control | [16] 95 % of control

O=C(Nc1ccc(F)cc1)c1ccc(C(=O)Nc2ccc(F)cc2)cc1
inactive: [14] 108 % of control | [15] 91 % of control | [16] 91 % of control

CN(Cc1ccccc1)c1ccc(/C=C/c2ccnc3ccccc23)cc1
inactive: dose: 12.5 mg/kg/injection, schedule: Q01DX001 (ip), vehicle: saline with Tween-80 93 % of control | dose: 25.0 mg/kg/injection, schedule: Q01DX001 (ip), vehicle: saline with Tween-80 89 % of control | dose: 50.0 mg/kg/injection, schedule: Q01DX001 (ip), vehicle: saline with Tween-80 88 % of control | [17] 93 % of control | [18] 94 % of control

CCCC1=NNc2n[nH]c(=S)n2N1
inactive: dose: 12.5 mg/kg/injection, schedule: Q04DX003 (ip), vehicle: Klucel (hydroxypropylcellulose) (HPC) 100 % of control | dose: 25.0 mg/kg/injection, schedule: Q04DX003 (ip), vehicle: Klucel (hydroxypropylcellulose) (HPC) 91 % of control | dose: 50.0 mg/kg/injection, schedule: Q04DX003 (ip), vehicle: Klucel (hydroxypropylcellulose) (HPC) 91 % of control

O=[N+]([O-])c1cc([N+](=O)[O-])c2nn(-c3ccccc3)[n+]([O-])c2c1
inactive: [19] 100 % of control | [4] 100 % of control | [5] 90 % of control | [2] 95 % of control | [3] 100 % of control | [20] 100 % of control

Cc1oc(-c2ccccc2)nc1C(=O)Cl
inactive: [17] 120 % of control | dose: 200.0 mg/kg/injection, schedule: Q01DX001 (ip), vehicle: saline with Tween-80 113 % of control | [18] 103 % of control

CCOc1ccc2nc(N)sc2c1
inactive: [19] 118 % of control | [4] 109 % of control | dose: 100.0 mg/kg/injection, schedule: Q01DX001 (ip), vehicle: Klucel (hydroxypropylcellulose) (HPC) 86 % of control | [5] 104 % of control and 109 % of control | [2] 104 % of control | dose: 200.0 mg/kg/injection, schedule: Q01DX001 (ip), vehicle: Klucel (hydroxypropylcellulose) (HPC) 100 % of control | [3] 95 % of control | [20] 91 % of control

CN(C)CCCN1c2ccc(O)cc2Sc2ccc(Cl)cc21
inactive: dose: 3.1 mg/kg/injection, schedule: Q01DX009 (ip), vehicle: other 90 % of control | dose: 6.2 mg/kg/injection, schedule: Q01DX009 (ip), vehicle: other 90 % of control | dose: 12.5 mg/kg/injection, schedule: Q01DX009 (ip), vehicle: other 104 % of control | dose: 25.0 mg/kg/injection, schedule: Q01DX009 (ip), vehicle: other 109 % of control | dose: 25.0 mg/kg/injection, schedule: Q01DX009 (ip), vehicle: saline with Tween-80 91 % of control | [10] 91 % of control | [11] 100 % of control

CCCCNC(C)(C)C(SS)c1ccc(Cl)cc1 (stereo not drawn)
inactive: [4] 100 % of control | [5] 115 % of control | [2] 95 % of control | [6] 105 % of control | [3] 100 % of control

OC1CC2CC1C(Cl)C2Cl (stereo not drawn)
inactive: [10] 113 % of control | [11] 96 % of control | [12] 98 % of control
